Calls of active or inactive are those of the source.
Experiments:
Assay type in all cases: functional
[1] = molecular target: T1, Sentrin-specific protease 8 (Homo sapiens, UniProt Q96LD8);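 also: kinetic enzyme assay of SENP8 cleaving a Nedd8 protein substrate, dose-response confirmation of screening hits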
T1 sequence (Q96LD8 whole entry): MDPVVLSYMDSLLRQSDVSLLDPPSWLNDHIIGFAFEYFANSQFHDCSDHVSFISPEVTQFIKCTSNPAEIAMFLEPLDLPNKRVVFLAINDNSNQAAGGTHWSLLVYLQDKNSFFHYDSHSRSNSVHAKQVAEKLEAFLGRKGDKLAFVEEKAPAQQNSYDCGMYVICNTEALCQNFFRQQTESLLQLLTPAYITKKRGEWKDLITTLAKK

[2] = molecular target: T2, Sentrin-specific protease 6 (Homo sapiens, UniProt Q9GZR1);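 also: Luminescence-based dose-response confirmatory assay of SENP6 inhibition, following up an ultra-high-throughput screen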
T2 sequence (Q9GZR1 whole entry): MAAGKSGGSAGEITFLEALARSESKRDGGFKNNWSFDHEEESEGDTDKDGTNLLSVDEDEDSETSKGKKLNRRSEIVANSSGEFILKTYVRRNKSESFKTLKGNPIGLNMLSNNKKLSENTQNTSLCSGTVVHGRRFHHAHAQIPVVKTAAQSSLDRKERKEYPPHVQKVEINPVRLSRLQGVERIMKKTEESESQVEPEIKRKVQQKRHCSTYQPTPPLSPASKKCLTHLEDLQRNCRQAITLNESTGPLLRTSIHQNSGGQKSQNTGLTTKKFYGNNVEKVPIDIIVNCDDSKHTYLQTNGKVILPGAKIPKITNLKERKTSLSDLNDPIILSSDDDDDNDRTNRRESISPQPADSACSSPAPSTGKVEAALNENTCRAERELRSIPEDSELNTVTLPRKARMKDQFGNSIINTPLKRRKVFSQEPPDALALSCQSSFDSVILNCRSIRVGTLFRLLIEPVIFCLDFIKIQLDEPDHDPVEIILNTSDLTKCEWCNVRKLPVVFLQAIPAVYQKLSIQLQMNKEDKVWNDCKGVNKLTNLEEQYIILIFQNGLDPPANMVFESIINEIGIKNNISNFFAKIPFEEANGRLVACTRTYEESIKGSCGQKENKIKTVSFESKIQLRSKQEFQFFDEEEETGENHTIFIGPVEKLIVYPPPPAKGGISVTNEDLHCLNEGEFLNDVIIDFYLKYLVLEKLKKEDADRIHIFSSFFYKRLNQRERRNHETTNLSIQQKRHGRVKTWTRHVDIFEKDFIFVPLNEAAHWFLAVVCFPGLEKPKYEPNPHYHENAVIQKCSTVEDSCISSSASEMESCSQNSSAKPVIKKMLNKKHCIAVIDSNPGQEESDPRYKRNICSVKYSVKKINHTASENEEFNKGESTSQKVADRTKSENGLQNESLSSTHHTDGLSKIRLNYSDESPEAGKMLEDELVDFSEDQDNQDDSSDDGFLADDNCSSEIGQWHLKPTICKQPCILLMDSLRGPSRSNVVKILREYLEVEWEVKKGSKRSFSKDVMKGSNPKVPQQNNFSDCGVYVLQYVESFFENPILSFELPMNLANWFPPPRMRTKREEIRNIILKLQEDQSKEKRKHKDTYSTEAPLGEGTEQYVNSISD

Caspase-3 = molecular target: T3, Caspase-3 (Homo sapiens, UniProt P42574);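 also: Dose-response selectivity test against caspase-3 for candidate inhibitors of sentrin-specific proteases (SENPs)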
T3 sequence (P42574 whole entry): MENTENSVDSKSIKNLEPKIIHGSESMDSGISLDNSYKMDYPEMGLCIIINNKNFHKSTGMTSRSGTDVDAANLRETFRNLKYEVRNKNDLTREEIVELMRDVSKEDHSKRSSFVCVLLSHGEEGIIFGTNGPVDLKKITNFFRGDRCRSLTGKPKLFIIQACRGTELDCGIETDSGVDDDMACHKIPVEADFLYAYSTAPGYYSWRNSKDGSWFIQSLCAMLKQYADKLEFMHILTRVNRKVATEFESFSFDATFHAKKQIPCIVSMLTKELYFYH

[3] = molecular target: MAP kinase-interacting serine/threonine-protein kinase 2 (Homo sapiens, UniProt Q9HBH9)
Insulin receptor = Insulin receptor (Homo sapiens, UniProt P06213);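 also: insulin receptor kinase tested as one member of a kinome-wide kinase panel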
[4] = molecular target: Serine/threonine-protein kinase BRSK1 (Homo sapiens, UniProt Q8TDC3);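 also: measured within a kinome-wide kinase panel, with the target listed as KIAA1811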
[5] = molecular target: Ribosomal protein S6 kinase beta-1 (Homo sapiens, UniProt P23443);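 also: measured as one member of a kinome-wide profiling panel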
[6] = molecular target: Protein-tyrosine kinase 6 (Homo sapiens, UniProt Q13882)
[7] = molecular target: Casein kinase I isoform gamma-1 (Homo sapiens, UniProt Q9HCP0);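 also: measured as the CSNK1G1 member of a kinome profiling panel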
[8] = molecular target: Non-receptor tyrosine-protein kinase TYK2 (Homo sapiens, UniProt P29597)
[9] = molecular target: Interleukin-1 receptor-associated kinase 4 (Homo sapiens, UniProt Q9NWZ3)
[10] = molecular target: Tyrosine-protein kinase ITK/TSK (Homo sapiens, UniProt Q08881);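 also: affinity for ITK measured as one member of a broad kinase panel profiling binding across the kinome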
[11] = molecular target: Serine/threonine-protein kinase pim-2 (Homo sapiens, UniProt Q9P1W9);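 also: value comes from a broad kinase panel profiling study in which PIM2 was one of the panel members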
[12] = molecular target: Serine/threonine-protein kinase Nek4 (Homo sapiens, UniProt P51957)
[13] = molecular target: Interleukin-1 receptor-associated kinase 1 (Homo sapiens, UniProt P51617);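 also: IRAK1 tested as one member of a kinome panel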
[14] = molecular target: RAC-alpha serine/threonine-protein kinase (Homo sapiens, UniProt P31749);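 also: AKT1 affinity measured as one member of a kinome-wide kinase profiling panel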
[15] = molecular target: Testis-specific serine/threonine-protein kinase 1 (Homo sapiens, UniProt Q9BXA7)
Misshapen-like kinase 1 = Misshapen-like kinase 1 (Homo sapiens, UniProt Q8N4C8);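 also: kinome panel screen with MINK as the panel member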
[16] = molecular target: cGMP-dependent protein kinase 1 (Homo sapiens, UniProt Q13976);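 also: value from a kinome panel screen with PRKG1 as the panel member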
[17] = molecular target: Calcium/calmodulin-dependent protein kinase type II subunit beta (Homo sapiens, UniProt Q13554)
[18] = molecular target: Protein kinase C zeta type (Homo sapiens, UniProt Q05513);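 also: measured as one member of a broad kinase profiling panel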
LIM domain kinase 1 = LIM domain kinase 1 (Homo sapiens, UniProt P53667); assay: Navigating the Kinome. Panel member name: LIMK1
[19] = molecular target: High affinity nerve growth factor receptor (Homo sapiens, UniProt P04629);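 also: NTRK1 tested as one member of a kinome-wide profiling panel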
[20] = molecular target: Tyrosine-protein kinase Lck (Homo sapiens, UniProt P06239);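 also: lck was assayed as one member of a kinase panel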
[21] = molecular target: Platelet-derived growth factor receptor beta (Homo sapiens, UniProt P09619);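 also: value comes from a kinome panel, with PDGFRB tested as one panel member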
Chain of Platelet-derived growth factor receptor beta (P09619 whole entry): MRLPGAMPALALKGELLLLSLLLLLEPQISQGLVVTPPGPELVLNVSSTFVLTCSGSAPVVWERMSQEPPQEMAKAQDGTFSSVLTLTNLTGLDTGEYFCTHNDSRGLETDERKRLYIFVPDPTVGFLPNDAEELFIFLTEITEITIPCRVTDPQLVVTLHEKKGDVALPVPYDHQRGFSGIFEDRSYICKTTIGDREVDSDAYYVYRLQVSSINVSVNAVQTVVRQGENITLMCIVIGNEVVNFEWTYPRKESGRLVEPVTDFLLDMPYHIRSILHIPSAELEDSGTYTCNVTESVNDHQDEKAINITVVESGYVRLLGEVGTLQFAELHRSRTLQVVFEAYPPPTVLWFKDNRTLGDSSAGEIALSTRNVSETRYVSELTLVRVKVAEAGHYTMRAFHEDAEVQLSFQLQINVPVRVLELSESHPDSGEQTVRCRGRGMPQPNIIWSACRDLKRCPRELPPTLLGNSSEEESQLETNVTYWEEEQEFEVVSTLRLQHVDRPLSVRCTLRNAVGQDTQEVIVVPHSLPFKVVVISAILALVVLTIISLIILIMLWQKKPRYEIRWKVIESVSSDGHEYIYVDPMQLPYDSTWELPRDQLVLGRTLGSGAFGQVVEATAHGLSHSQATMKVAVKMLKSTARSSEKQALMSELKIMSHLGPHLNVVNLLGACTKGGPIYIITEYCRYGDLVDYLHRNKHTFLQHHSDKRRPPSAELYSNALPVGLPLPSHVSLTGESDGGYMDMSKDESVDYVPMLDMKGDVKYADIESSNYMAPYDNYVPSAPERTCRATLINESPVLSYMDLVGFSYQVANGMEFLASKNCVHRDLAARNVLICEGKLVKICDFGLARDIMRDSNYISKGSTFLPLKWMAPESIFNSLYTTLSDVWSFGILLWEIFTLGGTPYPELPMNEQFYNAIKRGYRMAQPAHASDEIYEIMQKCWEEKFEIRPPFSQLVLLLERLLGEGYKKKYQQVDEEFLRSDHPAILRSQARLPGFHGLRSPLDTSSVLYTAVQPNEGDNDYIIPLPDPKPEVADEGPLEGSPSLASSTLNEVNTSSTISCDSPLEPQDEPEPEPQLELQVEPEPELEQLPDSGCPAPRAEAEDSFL

Chain of Non-receptor tyrosine-protein kinase TYK2 (P29597 whole entry): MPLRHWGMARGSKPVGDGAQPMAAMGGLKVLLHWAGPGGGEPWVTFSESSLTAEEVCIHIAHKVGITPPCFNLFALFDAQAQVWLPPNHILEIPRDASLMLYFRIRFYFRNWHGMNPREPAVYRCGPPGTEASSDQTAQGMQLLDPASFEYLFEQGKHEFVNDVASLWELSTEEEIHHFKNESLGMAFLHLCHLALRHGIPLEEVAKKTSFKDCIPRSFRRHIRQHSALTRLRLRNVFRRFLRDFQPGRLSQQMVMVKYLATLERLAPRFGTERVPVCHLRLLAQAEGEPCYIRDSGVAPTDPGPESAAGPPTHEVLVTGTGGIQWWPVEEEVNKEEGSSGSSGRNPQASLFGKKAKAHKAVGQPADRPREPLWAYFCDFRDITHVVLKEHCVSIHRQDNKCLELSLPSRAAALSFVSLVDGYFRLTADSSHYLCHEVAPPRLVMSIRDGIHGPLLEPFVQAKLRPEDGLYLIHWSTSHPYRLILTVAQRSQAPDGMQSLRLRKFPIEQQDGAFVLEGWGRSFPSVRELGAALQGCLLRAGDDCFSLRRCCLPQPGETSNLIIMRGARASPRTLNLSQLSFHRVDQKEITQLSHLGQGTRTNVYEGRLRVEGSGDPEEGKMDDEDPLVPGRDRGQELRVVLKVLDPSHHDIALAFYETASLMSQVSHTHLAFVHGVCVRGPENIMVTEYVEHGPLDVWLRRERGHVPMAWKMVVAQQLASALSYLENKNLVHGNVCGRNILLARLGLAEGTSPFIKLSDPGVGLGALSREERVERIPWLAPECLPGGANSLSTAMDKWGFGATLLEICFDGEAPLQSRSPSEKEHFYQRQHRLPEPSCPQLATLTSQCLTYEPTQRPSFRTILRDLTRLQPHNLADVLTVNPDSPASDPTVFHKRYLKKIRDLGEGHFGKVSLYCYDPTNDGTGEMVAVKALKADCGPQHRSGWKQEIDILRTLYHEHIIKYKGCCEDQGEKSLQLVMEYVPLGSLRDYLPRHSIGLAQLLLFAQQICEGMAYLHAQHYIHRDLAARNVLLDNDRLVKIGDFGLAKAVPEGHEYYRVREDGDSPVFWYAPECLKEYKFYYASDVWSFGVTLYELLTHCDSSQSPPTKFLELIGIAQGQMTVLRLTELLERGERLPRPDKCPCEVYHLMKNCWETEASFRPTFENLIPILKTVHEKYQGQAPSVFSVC
Chain of Serine/threonine-protein kinase BRSK1 (Q8TDC3 whole entry): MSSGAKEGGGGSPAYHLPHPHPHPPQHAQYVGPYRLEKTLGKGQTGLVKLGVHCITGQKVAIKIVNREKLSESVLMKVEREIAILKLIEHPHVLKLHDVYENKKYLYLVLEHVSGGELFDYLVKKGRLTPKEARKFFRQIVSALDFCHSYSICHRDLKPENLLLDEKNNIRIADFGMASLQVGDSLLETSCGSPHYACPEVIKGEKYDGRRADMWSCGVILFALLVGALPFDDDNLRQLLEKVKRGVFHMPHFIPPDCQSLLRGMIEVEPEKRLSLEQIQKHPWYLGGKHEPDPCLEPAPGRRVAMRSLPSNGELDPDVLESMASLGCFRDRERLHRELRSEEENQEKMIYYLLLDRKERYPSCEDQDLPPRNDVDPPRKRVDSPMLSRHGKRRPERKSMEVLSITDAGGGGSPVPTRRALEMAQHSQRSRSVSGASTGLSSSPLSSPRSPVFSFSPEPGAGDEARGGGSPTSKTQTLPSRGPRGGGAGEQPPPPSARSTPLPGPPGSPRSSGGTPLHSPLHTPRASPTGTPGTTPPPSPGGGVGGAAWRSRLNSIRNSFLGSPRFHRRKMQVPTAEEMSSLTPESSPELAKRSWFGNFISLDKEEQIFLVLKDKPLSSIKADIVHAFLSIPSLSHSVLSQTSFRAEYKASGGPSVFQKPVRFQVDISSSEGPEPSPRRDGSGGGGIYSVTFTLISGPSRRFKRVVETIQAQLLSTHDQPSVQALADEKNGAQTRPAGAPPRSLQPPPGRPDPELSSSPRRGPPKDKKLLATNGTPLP
Chain of Tyrosine-protein kinase Lck (P06239 whole entry): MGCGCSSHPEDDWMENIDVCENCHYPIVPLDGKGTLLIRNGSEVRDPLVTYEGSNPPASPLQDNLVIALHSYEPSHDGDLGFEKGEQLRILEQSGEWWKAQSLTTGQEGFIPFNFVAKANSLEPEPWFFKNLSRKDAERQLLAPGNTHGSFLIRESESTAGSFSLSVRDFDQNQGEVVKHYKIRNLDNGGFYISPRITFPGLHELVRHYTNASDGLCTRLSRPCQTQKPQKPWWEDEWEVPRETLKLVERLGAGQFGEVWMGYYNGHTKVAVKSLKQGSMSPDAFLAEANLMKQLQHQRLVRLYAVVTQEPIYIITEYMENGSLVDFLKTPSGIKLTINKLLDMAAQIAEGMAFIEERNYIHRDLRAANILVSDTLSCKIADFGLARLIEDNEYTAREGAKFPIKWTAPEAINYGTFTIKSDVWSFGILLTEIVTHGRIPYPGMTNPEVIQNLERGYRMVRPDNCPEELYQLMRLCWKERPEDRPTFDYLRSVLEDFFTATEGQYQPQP
Chain of Tyrosine-protein kinase ITK/TSK (Q08881 whole entry): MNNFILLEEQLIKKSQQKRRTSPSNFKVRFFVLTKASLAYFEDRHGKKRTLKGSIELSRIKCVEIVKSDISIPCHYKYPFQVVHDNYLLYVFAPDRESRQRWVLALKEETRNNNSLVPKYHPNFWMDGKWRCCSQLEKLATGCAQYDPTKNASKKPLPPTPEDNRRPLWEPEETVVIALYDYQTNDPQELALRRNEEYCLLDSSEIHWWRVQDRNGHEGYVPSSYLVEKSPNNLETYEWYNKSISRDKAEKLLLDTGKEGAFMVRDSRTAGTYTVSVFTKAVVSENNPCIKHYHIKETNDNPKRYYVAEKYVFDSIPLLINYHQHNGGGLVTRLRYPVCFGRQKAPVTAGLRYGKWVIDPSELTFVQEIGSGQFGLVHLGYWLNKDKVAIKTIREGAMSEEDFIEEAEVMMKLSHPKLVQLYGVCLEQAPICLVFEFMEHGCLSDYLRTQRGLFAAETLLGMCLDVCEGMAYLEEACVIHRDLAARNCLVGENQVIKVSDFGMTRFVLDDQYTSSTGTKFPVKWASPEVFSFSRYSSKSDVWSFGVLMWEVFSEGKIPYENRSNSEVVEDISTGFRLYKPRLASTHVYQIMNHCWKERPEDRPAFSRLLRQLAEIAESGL
Chain of Interleukin-1 receptor-associated kinase 4 (Q9NWZ3 whole entry): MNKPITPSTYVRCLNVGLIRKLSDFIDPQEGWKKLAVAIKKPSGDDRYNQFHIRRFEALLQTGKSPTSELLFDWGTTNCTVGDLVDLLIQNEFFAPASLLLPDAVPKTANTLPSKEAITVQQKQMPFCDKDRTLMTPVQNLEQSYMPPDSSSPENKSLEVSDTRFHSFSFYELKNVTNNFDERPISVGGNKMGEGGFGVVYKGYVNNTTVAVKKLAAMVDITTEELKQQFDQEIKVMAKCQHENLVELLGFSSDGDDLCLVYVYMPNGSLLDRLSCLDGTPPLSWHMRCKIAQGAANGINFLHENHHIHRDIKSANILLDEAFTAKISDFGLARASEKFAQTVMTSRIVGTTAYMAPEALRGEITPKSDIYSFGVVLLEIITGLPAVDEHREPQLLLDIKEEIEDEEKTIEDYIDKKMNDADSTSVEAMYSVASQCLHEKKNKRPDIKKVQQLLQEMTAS
Chain of Testis-specific serine/threonine-protein kinase 1 (Q9BXA7 whole entry): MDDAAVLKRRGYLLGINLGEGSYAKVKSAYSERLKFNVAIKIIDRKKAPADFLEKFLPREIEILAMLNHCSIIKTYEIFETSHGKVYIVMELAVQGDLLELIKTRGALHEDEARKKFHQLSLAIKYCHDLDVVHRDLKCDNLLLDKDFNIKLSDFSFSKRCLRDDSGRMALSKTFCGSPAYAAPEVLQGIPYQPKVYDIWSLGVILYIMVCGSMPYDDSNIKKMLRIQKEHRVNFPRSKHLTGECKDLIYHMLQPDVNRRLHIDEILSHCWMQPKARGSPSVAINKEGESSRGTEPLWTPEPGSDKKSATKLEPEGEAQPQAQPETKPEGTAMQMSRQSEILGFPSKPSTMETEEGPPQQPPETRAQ

O=C1C2=[N+]([O-])[C@H]3CCCC[C@H]3[N+]([O-])=C2c2ccccc21 was tested, and the IC50 [1] was 2680 nM (active), the IC50 [2] was 10200 nM (active) and the IC50 (Caspase-3) was 15400 nM (active).
With NC1CCC(Nc2nccc(-c3c[nH]c4ncccc34)n2)CC1 (stereo not given) the Ki [3] was 251 nM (active), the Ki (Insulin receptor) was 501 nM (active) and the Ki [4] was 5010 nM (active). For the same molecule, the Ki [5] was 501 nM (active), the Ki [6] was > 2510 nM (inactive) and the Ki [7] was 100 nM (active). The Ki [8] was 794 nM (active), the Ki [9] was 50.1 nM (active) and the Ki [10] was 631 nM (active). The Ki [11] was 501 nM (active), the Ki [12] was 2000 nM (active) and the Ki [13] was 126 nM (active). The Ki [14] was 1260 nM (active), the Ki [15] was 63.1 nM (active) and the Ki (Misshapen-like kinase 1) was 251 nM (active). For the same molecule, the Ki [16] was 100 nM (active).
With COC(C(=O)N1Cc2[nH]nc(NC(=O)c3ccc(N4CCN(C)CC4)cc3)c2C1)c1ccccc1 (stereo not given) the Ki [17] was 7940 nM (active) and the Ki [18] was > 7940 nM (inactive).
With CC(C)(O)c1cn(-c2ccc3[nH]ncc3c2)nn1 the Ki (LIM domain kinase 1) was 15800 nM (active) and the Ki [19] was 79400 nM (active).
With OCc1cc(-c2ccc3[nH]ncc3c2)on1 the Ki [20] was 100000 nM (active) and the Ki [21] was 50100 nM (active).

Reference: ChEMBL document CHEMBL1201862, “PubChem BioAssay data set” (2004)
